Assay results published in the supplement of paper PMC10627819.

Tests used:
S. aureus DSM 20231 [1] = assay: fitness (endpoint OD595 vs no drug) (fraction); higher = more growth
Outline: (§1)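 Fitness expresses the optical density reached at the stationary-phase transition as a fraction of the robust mean of no-drug control wells. It is capped at 1. Measurements were OD595 every 30 min for 14 h at 37 °C after inoculation of 384-well plates at OD595 0.01 (30 µl, or 55 µl for S. pneumoniae), minus the first reading.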

S. aureus Newman [2] = assay: as above
Outline: as §1

S. pneumoniae D39V [3] = assay: as above
Outline: as §1

B. subtilis 168 = assay: Bliss interaction score (quartile over a dose matrix) (fitness difference); higher = more antagonism (negative = synergy)
Outline: (§2)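 Each OD595 reading at entry into stationary phase was scaled to the robust mean of the untreated wells on its plate, with a ceiling of 1. These ratios define fitness, and single-drug fitness was inferred from combinations. The Bliss score compares observed fitness with the product-based expectation and is reported as quartiles across all replicate types, technical, biological and donor/recipient.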

S. aureus DSM 20231 [4] = assay: as above
Outline: as §2

S. aureus Newman [5] = assay: as above
Outline: as §2

S. pneumoniae D39V [6] = assay: as above
Outline: as §2
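For Bliss interaction score (quartile over a dose matrix) in this document: first quartile when negative (synergy) and third quartile when positive (antagonism).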
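For fitness (endpoint OD595 vs no drug) in this document: OD595 on entry to stationary phase over no-drug wells; at most 1.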

CC1(C)S[C@@H]2[C@H](NC(=O)[C@H](N)c3ccc(O)cc3)C(=O)N2[C@H]1C(=O)O [Amoxicillin] + C[n+]1ccc(-c2cc[n+](C)cc2)cc1 [Paraquat]
Conditions	fitness
S. aureus DSM 20231 [1], first compound 0.0625 µg/mL, partner 1.25 µg/mL	0.512
S. aureus DSM 20231 [1], first compound 0.0625 µg/mL, partner 2.5 µg/mL	0.517
S. aureus DSM 20231 [1], first compound 0.0625 µg/mL, partner 5 µg/mL	0.488
S. aureus DSM 20231 [1], first compound 0.125 µg/mL, partner 1.25 µg/mL	0.433
S. aureus DSM 20231 [1], first compound 0.125 µg/mL, partner 2.5 µg/mL	0.498
S. aureus DSM 20231 [1], first compound 0.125 µg/mL, partner 5 µg/mL	0.431
S. aureus DSM 20231 [1], first compound 0.25 µg/mL, partner 2.5 µg/mL	0.0563
S. aureus DSM 20231 [1], first compound 0.25 µg/mL, partner 5 µg/mL	0.0722
S. aureus Newman [2], first compound 0.0625 µg/mL, partner 1.25 µg/mL	0.89
S. aureus Newman [2], first compound 0.0625 µg/mL, partner 2.5 µg/mL	0.87
S. aureus Newman [2], first compound 0.0625 µg/mL, partner 5 µg/mL	0.86
S. aureus Newman [2], first compound 0.125 µg/mL, partner 1.25 µg/mL	0.861
S. aureus Newman [2], first compound 0.125 µg/mL, partner 2.5 µg/mL	0.885
S. aureus Newman [2], first compound 0.125 µg/mL, partner 5 µg/mL	0.838
S. aureus Newman [2], first compound 0.25 µg/mL, partner 5 µg/mL	0.829
S. pneumoniae D39V [3], first compound 0.0008 µg/mL, partner 1.5 µg/mL	≥ 1
S. pneumoniae D39V [3], first compound 0.0008 µg/mL, partner 3 µg/mL	0.961
S. pneumoniae D39V [3], first compound 0.0008 µg/mL, partner 6 µg/mL	0.921
S. pneumoniae D39V [3], first compound 0.0015 µg/mL, partner 1.5 µg/mL	0.988
S. pneumoniae D39V [3], first compound 0.0015 µg/mL, partner 3 µg/mL	0.939
S. pneumoniae D39V [3], first compound 0.0015 µg/mL, partner 6 µg/mL	0.913
S. pneumoniae D39V [3], first compound 0.003 µg/mL, partner 1.5 µg/mL	0.96
S. pneumoniae D39V [3], first compound 0.003 µg/mL, partner 3 µg/mL	0.847
S. pneumoniae D39V [3], first compound 0.003 µg/mL, partner 6 µg/mL	0.864

fitness, one replicate
Conditions	partner 1.25 µg/mL	partner 1.5 µg/mL	partner 2.5 µg/mL	partner 3 µg/mL	partner 5 µg/mL	partner 6 µg/mL
S. aureus DSM 20231 [1], first compound 0.5 µg/mL	0.0127	–	0.0289	–	0.0485	–
S. pneumoniae D39V [3], first compound 0.006 µg/mL	–	0.542	–	0.561	–	0.422

Conditions	Bliss interaction score
B. subtilis 168	-0.061
S. aureus DSM 20231 [4]	0.0506
S. aureus Newman [5]	0.0578
S. pneumoniae D39V [6]	-0.0705

CC1(C)S[C@@H]2[C@H](NC(=O)[C@H](N)c3ccc(O)cc3)C(=O)N2[C@H]1C(=O)O [Amoxicillin] + Cc1cc(NS(=O)(=O)c2ccc(N)cc2)no1 [Sulfamethoxazol]
fitness
Conditions	partner 1 µg/mL	partner 2 µg/mL	partner 4 µg/mL
S. aureus DSM 20231 [1], first compound 0.0625 µg/mL	0.445	0.506	0.522
S. aureus DSM 20231 [1], first compound 0.125 µg/mL	0.376	–	–
S. aureus DSM 20231 [1], first compound 0.25 µg/mL	0.0292	0.0368	0.035
S. aureus Newman [2], first compound 0.0625 µg/mL	0.878	0.88	0.883
S. aureus Newman [2], first compound 0.125 µg/mL	0.858	0.876	0.876
S. aureus Newman [2], first compound 0.25 µg/mL	0.81	0.847	0.844
S. pneumoniae D39V [3], first compound 0.0008 µg/mL	0.936	0.972	0.926
S. pneumoniae D39V [3], first compound 0.0015 µg/mL	0.882	0.928	0.878
S. pneumoniae D39V [3], first compound 0.003 µg/mL	0.87	0.883	0.875

fitness, one replicate
Conditions	partner 1 µg/mL	partner 2 µg/mL	partner 4 µg/mL	partner 8 µg/mL
S. aureus DSM 20231 [1], first compound 0.5 µg/mL	0.015	0.0516	0.0038	–
S. aureus Newman [2], first compound 0.125 µg/mL	–	–	–	0.948
S. aureus Newman [2], first compound 0.25 µg/mL	–	–	–	0.938
S. aureus Newman [2], first compound 0.5 µg/mL	–	0.812	0.852	0.84
S. pneumoniae D39V [3], first compound 0.006 µg/mL	0.368	0.423	0.388	–

Conditions	Bliss interaction score
B. subtilis 168	-0.0805
S. aureus DSM 20231 [4]	-0.0441
S. aureus Newman [5]	-0.0589
S. pneumoniae D39V [6]	-0.09

CC1(C)S[C@@H]2[C@H](NC(=O)[C@H](N)c3ccc(O)cc3)C(=O)N2[C@H]1C(=O)O [Amoxicillin] + CN[C@@H]1[C@H](O)[C@H](NC)[C@H]2O[C@@]3(O)C(=O)C[C@@H](C)O[C@H]3O[C@@H]2[C@H]1O [Spectinomycin]
fitness
Conditions	partner 4 µg/mL	partner 8 µg/mL	partner 16 µg/mL
S. aureus DSM 20231 [1], first compound 0.0625 µg/mL	0.649	0.63	0.572
S. aureus DSM 20231 [1], first compound 0.125 µg/mL	0.414	–	–
S. aureus DSM 20231 [1], first compound 0.25 µg/mL	–	0.148	–
S. aureus Newman [2], first compound 0.0625 µg/mL	0.874	0.876	0.823
S. aureus Newman [2], first compound 0.125 µg/mL	0.875	0.861	0.816
S. aureus Newman [2], first compound 0.25 µg/mL	0.863	0.826	–
S. pneumoniae D39V [3], first compound 0.0008 µg/mL	0.962	0.911	–
S. pneumoniae D39V [3], first compound 0.0015 µg/mL	0.975	0.94	0.887
S. pneumoniae D39V [3], first compound 0.003 µg/mL	0.882	0.89	0.826

one replicate
Conditions	fitness
S. aureus DSM 20231 [1], first compound 0.0625 µg/mL, partner 32 µg/mL	0.533
S. aureus DSM 20231 [1], first compound 0.0625 µg/mL, partner 64 µg/mL	0.0322
S. aureus DSM 20231 [1], first compound 0.125 µg/mL, partner 32 µg/mL	0.302
S. aureus DSM 20231 [1], first compound 0.125 µg/mL, partner 64 µg/mL	0.0172
S. aureus DSM 20231 [1], first compound 0.25 µg/mL, partner 32 µg/mL	0.0187
S. aureus DSM 20231 [1], first compound 0.25 µg/mL, partner 64 µg/mL	0.0033
S. aureus DSM 20231 [1], first compound 0.5 µg/mL, partner 4 µg/mL	0.0014
S. aureus DSM 20231 [1], first compound 0.5 µg/mL, partner 8 µg/mL	0.0081
S. aureus DSM 20231 [1], first compound 0.5 µg/mL, partner 16 µg/mL	0
S. aureus Newman [2], first compound 0.0625 µg/mL, partner 32 µg/mL	0.373
S. aureus Newman [2], first compound 0.0625 µg/mL, partner 64 µg/mL	0.0208
S. aureus Newman [2], first compound 0.125 µg/mL, partner 32 µg/mL	0.308
S. aureus Newman [2], first compound 0.125 µg/mL, partner 64 µg/mL	0.03
S. aureus Newman [2], first compound 0.25 µg/mL, partner 32 µg/mL	0.141
S. aureus Newman [2], first compound 0.25 µg/mL, partner 64 µg/mL	0.0162
S. pneumoniae D39V [3], first compound 0.0008 µg/mL, partner 16 µg/mL	0.951
S. pneumoniae D39V [3], first compound 0.006 µg/mL, partner 4 µg/mL	0.274
S. pneumoniae D39V [3], first compound 0.006 µg/mL, partner 8 µg/mL	0.329
S. pneumoniae D39V [3], first compound 0.006 µg/mL, partner 16 µg/mL	0.416

Conditions	Bliss interaction score
B. subtilis 168	-0.0495
S. aureus DSM 20231 [4]	0.0589
S. aureus Newman [5]	0.0408
S. pneumoniae D39V [6]	0.0712
